# Test results published in ChEMBL document CHEMBL4052706, “Isolation, structure elucidation, and synthesis of antiplasmodial quinolones from Crinum firmifolium” (Bioorg Med Chem, 2017).
# Legend:
# A2780 = test: Antiproliferative activity against human A2780 cells after 2 days by Alamar blue assay; format: cell-based; conditions: A2780, 48 h
# [1] = Selectivity ratio of IC50 for human A2780 cells to IC50 for chloroquine/mefloquine-resistant Plasmodium falciparum Dd2
# Plasmodium falciparum [2] = test: Antiplasmodial activity against chloroquine/mefloquine-resistant Plasmodium falciparum Dd2 incubated for 72 hrs by SYBR green 1 dye based fluorescence assay; format: functional; conditions: Dd2, 72 h
# Plasmodium falciparum [3] = test: Antiplasmodial activity against chloroquine-sensitive Plasmodium falciparum 3D7 incubated for 72 hrs by SYBR green 1 dye based fluorescence assay; format: functional; conditions: 3D7, 72 h
SMILES,IC50 (A2780) [µM],Ratio IC50 [1],IC50 (Plasmodium falciparum [2]) [µM],IC50 (Plasmodium falciparum [3]) [µM]
CCCCCCCCc1cc(=O)c2ccccc2[nH]1,12,3.4,3.65,–
CCCC(C)CCCc1cc(=O)c2ccccc2[nH]1 (centres undefined),29,89,0.33,0.385
COc1cc2c(cc1O)c(=O)n1ccc3cccc2c31,> 75,–,> 38,–
CC(C)CCCCCc1cc(=O)c2ccccc2[nH]1,34,57.7,0.583,0.501
CCC(C)CCCCc1cc(=O)c2ccccc2[nH]1 (centres undefined),8.7,11.6,0.75,0.921
CNc1ccccc1-c1cc2c(cc1CO)OCO2,> 78,–,> 39,–
CCCCCCCc1cc(=O)c2ccccc2[nH]1,35,–,1.31,–
C[C@@H]1CC[C@H]2[C@@H](C)C(=O)O[C@@H]3O[C@@]4(C)CC[C@@H]1[C@]32OO4 [ARTEMISININ],–,–,0.009,0.0059
CC(=O)O[C@H]1C(=O)[C@@]2(C)[C@H]([C@H](OC(=O)c3ccccc3)[C@]3(O)C[C@H](OC(=O)[C@H](O)[C@@H](NC(=O)c4ccccc4)c4ccccc4)C(C)=C1C3(C)C)[C@]1(OC(C)=O)CO[C@@H]1C[C@@H]2O [PACLITAXEL],0.0137,–,–,–
